Bounds are passed on as bounds.

One test concerns the target T1, Human DGAT1 (Homo sapiens, UniProt O75907).
T1 construct: my translation of the primer: M-G-DYKDDDD-GDRGSSRRR) (N); made in house; host or cells: Sf9 insect cells (recombinant baculovirus BAC-DGAT1, pFASTBAC1); microsome fraction
T1 sequence (O75907 1-488): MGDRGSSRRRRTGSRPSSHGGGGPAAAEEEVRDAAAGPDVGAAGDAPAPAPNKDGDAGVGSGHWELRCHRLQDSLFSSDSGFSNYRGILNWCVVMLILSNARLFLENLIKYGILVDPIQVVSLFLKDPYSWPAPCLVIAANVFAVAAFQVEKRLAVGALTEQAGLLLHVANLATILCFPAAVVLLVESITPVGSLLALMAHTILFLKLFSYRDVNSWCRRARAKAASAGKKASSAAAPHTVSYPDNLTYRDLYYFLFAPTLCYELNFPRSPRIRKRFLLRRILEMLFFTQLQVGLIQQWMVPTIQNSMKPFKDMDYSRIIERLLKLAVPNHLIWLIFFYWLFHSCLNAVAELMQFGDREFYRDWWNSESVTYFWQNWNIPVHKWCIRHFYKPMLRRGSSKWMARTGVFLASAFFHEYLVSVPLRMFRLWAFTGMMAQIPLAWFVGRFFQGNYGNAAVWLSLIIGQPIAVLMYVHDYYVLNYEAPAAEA
Nature of the test: DGAT inhibitory activity: [14C]-triglyceride synthesis by DGAT1 high expression Sf9 microsome. The note with it: Table 1, 25 μM dioleoylglycerol, 25 μM [14C]-Oleoyl-CoA, 32° C., 15 min, read-out: DGAT inhibitory activity (according to IC50). It is filed as biochemical. As for the experimental part:
The primer base sequence is shown below.
The PCR reaction was conducted using a KOD-plus kit (TOYOBO). The obtained PCR product was electrophoresed on agarose gel (1%), the DNA fragment amplified by PCR was recovered from the gel, and then digested with restriction enzymes EcoRI and SpeI. […] Furthermore, using BAC-TO-BAC Baculovirus Expression System (Invitrogen), recombinant baculovirus BAC-DGAT1 was prepared.
SF9 cells were sown at 1×10^6 cells/ml on Sf-900II SEM medium (1 L, Invitrogen) containing 10% fetal calf serum (Trace), 50 mg/L gentamicin (Invitrogen) and 0.1% Pluronic F-68 (Invitrogen), and shaking culture was performed using a 2 L volume Erlenmeyer at 27° C., 100 rpm. After culturing for 24 hr, recombinant baculovirus BAC-DGAT1 (6.7 mL) was added, and the mixture was further cultured for 3 days. The culture medium was centrifuged at 2,000 rpm for 5 min to give virus-infected cells. The infected cells were washed with a phosphate buffered saline (Invitrogen), centrifuged under the same conditions, and the cells were preserved at −80° C. The cryopreserved cells were thawed in ice, suspended in buffer A (50 mM Tris buffer (30 mL, pH 7.4) containing 20% glycerol, 0.15 M NaCl) supplemented with Complete Protease Inhibitor (Boehringer), and ruptured 3 times with a Polytron homogenizer (Kinematica) at 20,000 rpm for 30 sec. The Sf9 microsome fractions were obtained by a conventional method and cryopreserved at −80° C. as a DGAT1 high expression Sf9 microsome.
As a DGAT1 reaction buffer, a solution having a composition of 100 mM Tris-HCl (pH 7.5), 250 mM sucrose, 150 mM MgCl2, 0.01% bovine serum albumin (BSA) was used. […] A mixture of 300 μL of chloroform:methanol (=1:2) was added to the reaction mixture to quench the reaction. The reaction mixture was sufficiently mixed and saline (200 μL) was added to partition the mixture between a chloroform layer (lower layer) and an aqueous layer (upper layer). The chloroform layer (50 μL) was spotted on a thin layer chromatography silica gel plate (TLC plate, Merck) and developed with a solvent (n-hexane:diethyl ether:ethyl acetate:acetic acid=74:15:15:1). The developed TLC plate was dried, contacted with a BAS imaging plate (manufactured by FUJIFILM) and measured with BAS2500 (manufactured by FUJIFILM) 16 hr later to numerically show the amount of [^14C]-triglyceride (TG amount) produced during the reaction. The inhibitory rate was calculated by the following formula:
Inhibitory rate (%)=(1−(TG amount in the case with addition of test compound−blank TG amount)/(control TG amount−blank TG amount))×100
The count of the triglyceride produced in the solution reacted without addition of the test compound was used as a “control TG amount”, and the count of the triglyceride produced in the solution reacted without addition of the test compound and DGAT1 high expression Sf9 microsome was used as a “blank TG amount”.
As for `CCCCc1sc(NC(=O)CCC(=O)c2ccc(OCC)c(OCC)c2)cc1-c1ccccc1` [Example 58, N-(5-butyl-4-phenyl-2-thienyl)-4-(3,4-diethoxyphenyl)-4-oxobutanamide], the IC50 lay within 0.05 to 0.5 µM.
Turning to `CCOc1ccc(C(=O)CCC(=O)Nc2cc(-c3ccccc3)sc2-c2ccccc2)cc1` [Example 60, N-(2,5-diphenyl-3-thienyl)-4-(4-ethoxyphenyl)-4-oxobutanamide], the IC50 lay within 0.5 to 10 µM.
On the same count and under the same terms, for `CCOc1ccc(C(=O)NCCNC(=O)c2cc(-c3ccccc3)n(-c3ccc(OC(F)(F)F)cc3)c2C)cc1` [Example 62, N-{2-[(4-ethoxybenzoyl)amino]ethyl}-2-methyl-5-phenyl-1-[4-(trifluoromethoxy)phenyl]-1H-pyrrole-3-carboxamide] the value was 0.05 to 0.5 µM; for `CCOc1ccc(C(=O)NCCNC(=O)c2cc(-c3ccccc3)n(Cc3ccccc3)c2C)cc1` [Example 63, 1-benzyl-N-{2-[(4-ethoxybenzoyl)amino]ethyl}-2-methyl-5-phenyl-1H-pyrrole-3-carboxamide], 0.05 to 0.5 µM.
On the same count and under the same terms, for `CCOc1ccc(C(=O)NCCNC(=O)c2cc(-c3ccccc3)n(-c3ccc(OC)cc3)c2C)cc1` [Example 64, N-{2-[(4-ethoxybenzoyl)amino]ethyl}-1-(4-methoxyphenyl)-2-methyl-5-phenyl-1H-pyrrole-3-carboxamide] the value was 0.05 to 0.5 µM.
As for `CCOc1ccc(C(=O)NCCNC(=O)c2cc(-c3ccccc3)n(-c3ccc(SC)cc3)c2C)cc1` [Example 65, N-{2-[(4-ethoxybenzoyl)amino]ethyl}-2-methyl-1-[4-(methylthio)phenyl]-5-phenyl-1H-pyrrole-3-carboxamide], the half-inhibitory concentration (IC50) is 0.01 to 0.05 µM.

Staying with this test, now noted: Table 2, 25 μM dioleoylglycerol, 25 μM [14C]-Oleoyl-CoA, 32° C., 15 min, read-out: DGAT inhibitory activity (according to IC50).
As to `CCOc1ccc(C(=O)CCC(=O)Nc2sc(-c3ccccc3)nc2-c2ccccc2)cc1` [Example 66, 4-(4-ethoxyphenyl)-N-(2,4-diphenyl-1,3-thiazol-5-yl)-4-oxobutanamide], the IC50 lay in the range of 0.5 to 10 µM.
As to `O=C(CCC(=O)c1ccc2c(c1)OCCO2)Nc1nc(-c2ccccc2)c(Cc2ccccc2)s1` [Example 67, N-(5-benzyl-4-phenyl-1,3-thiazol-2-yl)-4-(2,3-dihydro-1,4-benzodioxin-6-yl)-4-oxobutanamide], the IC50 lay within 0.05 to 0.5 µM.
Still for that read-out and setting: for `O=C(CCC(=O)c1ccc2c(c1)OCCCO2)Nc1nc(-c2ccccc2)c(Cc2ccccc2)s1` [Example 68, N-(5-benzyl-4-phenyl-1,3-thiazol-2-yl)-4-(3,4-dihydro-2H-1,5-benzodioxepin-7-yl)-4-oxobutanamide] the value was 0.01 to 0.05 µM; for `CCCCc1ccc(C(=O)c2sc(NC(=O)CCC(=O)c3cc(OCC)c(OCC)cc3C)nc2-c2ccccc2)cc1` [Example 69, N-[5-(4-butylbenzoyl)-4-phenyl-1,3-thiazol-2-yl]-4-(4,5-diethoxy-2-methylphenyl)-4-oxobutanamide], 0.05 to 0.5 µM; for `CCOc1ccc(C(=O)CCC(=O)Nc2cc(-c3ccccc3)c(Cc3ccccc3)s2)cc1Cl` [Example 70, N-(5-benzyl-4-phenyl-2-thienyl)-4-(3-chloro-4-ethoxyphenyl)-4-oxobutanamide], 0.05 to 0.5 µM.
As to `COc1ccc(C(=O)CCC(=O)Nc2nc(-c3ccccc3)c(Cc3ccccc3)s2)cc1OC` [Example 71, N-(5-benzyl-4-phenyl-1,3-thiazol-2-yl)-4-(3,4-dimethoxyphenyl)-4-oxobutanamide], the IC50 is no more than 0.01 µM.
Consider `CCc1ccc(C(=O)CCC(=O)Nc2nc(-c3ccccc3)c(Cc3ccccc3)s2)s1` [Example 72, N-(5-benzyl-4-phenyl-1,3-thiazol-2-yl)-4-(5-ethyl-2-thienyl)-4-oxobutanamide], for which the IC50 was in the range of 0.01 to 0.05 µM.
Still for that read-out and setting: for `CCOc1cc(C)c(C(=O)CCC(=O)Nc2cc(-c3ccccc3)c3cc(Cl)ccc3n2)cc1OCC` [Example 73, N-(6-chloro-4-phenylquinolin-2-yl)-4-(4,5-diethoxy-2-methylphenyl)-4-oxobutanamide] the value was 0.05 to 0.5 µM; for `CCOc1ccc(C(=O)CCC(=O)Nc2cc(-c3ccccc3)c3ccccc3n2)cc1OCC` [Example 74, 4-(3,4-diethoxyphenyl)-4-oxo-N-(4-phenylquinolin-2-yl)butanamide], no more than 0.01 µM; for `O=C(CCC(=O)c1ccc2c(c1)CCCC2)Nc1cc(-c2ccccc2)c2cc(Cl)ccc2n1` [Example 75, N-(6-chloro-4-phenylquinolin-2-yl)-4-oxo-4-(5,6,7,8-tetrahydronaphthalen-2-yl)butanamide], 0.05 to 0.5 µM.
As to `CCOc1ccc(C(=O)CCC(=O)Nc2cc(-c3ccc(C)cc3)c3cc(Br)ccc3n2)cc1OCC` [Example 76, N-[6-bromo-4-(4-methylphenyl)quinolin-2-yl]-4-(3,4-diethoxyphenyl)-4-oxobutanamide], the IC50 was in the range of 0.01 to 0.05 µM.
Still for that read-out and setting: for `CCOC(=O)/C=C/c1ccc2nc(NC(=O)CCC(=O)c3ccc(OCC)c(OCC)c3)cc(-c3ccc(C)cc3)c2c1` [Example 77, ethyl(2E)-3-[2-{[4-(3,4-diethoxyphenyl)-4-oxobutanoyl]amino}-4-(4-methylphenyl)quinoline-6-yl]acrylate] the value was 0.01 to 0.05 µM.
As to `CCOc1ccc(C(=O)CCC(=O)Nc2cc(-c3ccc(C)cc3)c3cc(/C=C/C(=O)OC(C)(C)C)ccc3n2)cc1OCC` [Example 78, tert-butyl (2E)-3-[2-{[4-(3,4-diethoxyphenyl)-4-oxobutanoyl]amino}-4-(4-methylphenyl)quinoline-6-yl]acrylate], the IC50 fell in the range of 0.05 to 0.5 µM.
For `CCOc1ccc(C(=O)CCC(=O)Nc2cc(-c3ccccc3)c3ccccc3n2)cc1` [Example 79, 4-(4-ethoxyphenyl)-4-oxo-N-(4-phenylquinolin-2-yl)butanamide], the IC50 lay in the range of 0.01 to 0.05 µM.
As to `CCOc1ccc(C(=O)CCC(=O)Nc2cc(-c3cccc(OC)c3)c3ccccc3n2)cc1OCC` [Example 80, 4-(3,4-diethoxyphenyl)-N-[4-(3-methoxyphenyl)quinolin-2-yl]-4-oxobutanamide], the 50% inhibitory concentration (IC50) is 0.01 to 0.05 µM.
Take `CCOc1ccc(C(=O)CCC(=O)Nc2cc(-c3ccccc3)c3ccc(Br)cc3n2)cc1OCC` [Example 81, N-(7-bromo-4-phenylquinolin-2-yl)-4-(3,4-diethoxyphenyl)-4-oxobutanamide]: the IC50 lay in the range of 0.05 to 0.5 µM.
In the case of `CCOc1ccc(C(=O)CCC(=O)Nc2cc(-c3ccccc3)c3ccc(/C=C/C(=O)OC(C)(C)C)cc3n2)cc1OCC` [Example 82, tert-butyl (2E)-3-(2-{[4-(3,4-diethoxyphenyl)-4-oxobutanoyl]amino}-4-phenylquinoline-7-yl)acrylate], the IC50 lay in the range of 0.05 to 0.5 µM.
Consider `CCOc1ccc(C(=O)CCC(=O)Nc2cc(-c3ccccc3)c3ccc(/C=C/C(=O)O)cc3n2)cc1OCC` [Example 83, (2E)-3-(2-{[4-(3,4-diethoxyphenyl)-4-oxobutanoyl]amino}-4-phenylquinoline-7-yl)acrylic acid], for which the IC50 lay in the range of 0.05 to 0.5 µM.
On the same count and under the same terms, for `CCOc1ccc(C(=O)CCC(=O)Nc2cc3ccccc3c(-c3ccccc3)n2)cc1OCC` [Example 84, 4-(3,4-diethoxyphenyl)-4-oxo-N-(1-phenylisoquinolin-3-yl)butanamide] the value was 0.5 to 10 µM; for `CCOc1ccc(C(=O)CCC(=O)Nc2cc3ccccc3c(N3CCCCC3)n2)cc1OCC` [Example 85, 4-(3,4-diethoxyphenyl)-4-oxo-N-[1-(piperidin-1-yl)isoquinolin-3-yl]butanamide], 0.5 to 10 µM.

The IC50 is the concentration that inhibits the measured activity by half.

The record behind these values is US20090048258A1, “Amide Compound” (priority 2005, published 2009).
